Measured values as given in ChEMBL document CHEMBL3885881, “DrugMatrix”.

Organism: Rattus norvegicus
Assay: DrugMatrix - Regimen: Daily Repeat
Format: toxicity, organism-based, Sprague-Dawley
Set-up: regimen Daily Repeat, gender Male, age 6-8 weeks
Conditions: in vivo, sc, route subcutaneous, […]; for ABSOLUTE BASOPHIL / ABSOLUTE EOSINOPHIL / ABSOLUTE LYMPHOCYTE / ABSOLUTE MONOCYTE / ABSOLUTE SEGMENTED NEUTROPHIL / BASOPHIL / EOSINOPHIL / ERYTHROCYTE COUNT / HEMATOCRIT / HEMOGLOBIN / LEUKOCYTE COUNT / LYMPHOCYTE / MEAN CORPUSCULAR HEMOGLOBIN / MEAN CORPUSCULAR HEMOGLOBIN CONCENTRATION / MEAN CORPUSCULAR VOLUME / MONOCYTE / NEUTROPHIL / NUCLEATED RED BLOOD CELLS / PLATELET COUNT: tissue Blood; for ALANINE AMINOTRANSFERASE / ALKALINE PHOSPHATASE / ASPARTATE AMINOTRANSFERASE / BLOOD UREA NITROGEN / CARBON DIOXIDE / CHLORIDE / CHOLESTEROL / CREATINE PHOSPHOKINASE / CREATININE / GLUCOSE / LACTATE DEHYDROGENASE / LIPASE / PHOSPHORUS / POTASSIUM / SODIUM / TOTAL BILIRUBIN / TOTAL PROTEIN / URIC ACID: tissue Plasma
[1] = 0 mg/kg, 72 h, dose level Control, time 3 day
[2] = 0 mg/kg, 120 h, dose level Control, time 5 day
[3] = 17 mg/kg, 72 h, dose level Low, time 3 day

CC(C)Cn1cnc2c(N)nc3ccccc3c21 [IMIQUIMOD]
ABSOLUTE BASOPHIL [1]: 0 CELLS/uL | ABSOLUTE EOSINOPHIL [1]: 42.67 CELLS/uL | ABSOLUTE LYMPHOCYTE [1]: 10202 CELLS/uL | ABSOLUTE MONOCYTE [1]: 261.5 CELLS/uL | ABSOLUTE SEGMENTED NEUTROPHIL [1]: 2193.83 CELLS/uL | BASOPHIL [1]: 0% | EOSINOPHIL [1]: 0.33% | ERYTHROCYTE COUNT [1]: 5.63 x10E6/uL | HEMATOCRIT [1]: 35.35% | HEMOGLOBIN [1]: 13.07 G/DL | LEUKOCYTE COUNT [1]: 12.7 x10E3/uL | LYMPHOCYTE [1]: 81.17% | MEAN CORPUSCULAR HEMOGLOBIN [1]: 23.23 pg | MEAN CORPUSCULAR HEMOGLOBIN CONCENTRATION [1]: 36.97 G/DL | MEAN CORPUSCULAR VOLUME [1]: 62.82 fL | MONOCYTE [1]: 2% | NEUTROPHIL [1]: 16.5% | NUCLEATED RED BLOOD CELLS [1]: 0 /100WBC | PLATELET COUNT [1]: 1180.33 x10E3/uL | ALANINE AMINOTRANSFERASE [1]: 48.67 u/L | ALKALINE PHOSPHATASE [1]: 360.67 u/L | ASPARTATE AMINOTRANSFERASE [1]: 85.5 u/L | BLOOD UREA NITROGEN [1]: 17.83 mg/dL | CARBON DIOXIDE [1]: 26.17 mmol/L | CHLORIDE [1]: 101.83 MEQ/L | CHOLESTEROL [1]: 71 mg/dL | CREATINE PHOSPHOKINASE [1]: 515.17 u/L | CREATININE [1]: 0.22 mg/dL | GLUCOSE [1]: 192.5 mg/dL | LACTATE DEHYDROGENASE [1]: 214.67 u/L | LIPASE [1]: 8.5 u/L | PHOSPHORUS [1]: 12.95 mg/dL | POTASSIUM [1]: 6.39 MEQ/L | SODIUM [1]: 142.38 MEQ/L | TOTAL BILIRUBIN [1]: 0.18 mg/dL | TOTAL PROTEIN [1]: 5.95 G/DL | URIC ACID [1]: 1.83 mg/dL | ABSOLUTE BASOPHIL [2]: 0 CELLS/uL | ABSOLUTE EOSINOPHIL [2]: 188.5 CELLS/uL | ABSOLUTE LYMPHOCYTE [2]: 12360.83 CELLS/uL | ABSOLUTE MONOCYTE [2]: 64.33 CELLS/uL | ABSOLUTE SEGMENTED NEUTROPHIL [2]: 1986.33 CELLS/uL | BASOPHIL [2]: 0% | EOSINOPHIL [2]: 1.33% | ERYTHROCYTE COUNT [2]: 5.52 x10E6/uL | HEMATOCRIT [2]: 35.82% | HEMOGLOBIN [2]: 13.25 G/DL | LEUKOCYTE COUNT [2]: 14.6 x10E3/uL | LYMPHOCYTE [2]: 84.5% | MEAN CORPUSCULAR HEMOGLOBIN [2]: 24.05 pg | MEAN CORPUSCULAR HEMOGLOBIN CONCENTRATION [2]: 36.98 G/DL | MEAN CORPUSCULAR VOLUME [2]: 64.97 fL | MONOCYTE [2]: 0.5% | NEUTROPHIL [2]: 13.67% | NUCLEATED RED BLOOD CELLS [2]: 0 /100WBC | PLATELET COUNT [2]: 1297.83 x10E3/uL | ALANINE AMINOTRANSFERASE [2]: 51.17 u/L | ALKALINE PHOSPHATASE [2]: 393.17 u/L | ASPARTATE AMINOTRANSFERASE [2]: 111 u/L | BLOOD UREA NITROGEN [2]: 18.17 mg/dL | CARBON DIOXIDE [2]: 25 mmol/L | CHLORIDE [2]: 105.17 MEQ/L | CHOLESTEROL [2]: 65.5 mg/dL | CREATINE PHOSPHOKINASE [2]: 911.5 u/L | CREATININE [2]: 0.21 mg/dL | GLUCOSE [2]: 183 mg/dL | LACTATE DEHYDROGENASE [2]: 189 u/L | LIPASE [2]: 8.33 u/L | PHOSPHORUS [2]: 12.78 mg/dL | POTASSIUM [2]: 6.05 MEQ/L | SODIUM [2]: 144.57 MEQ/L | TOTAL BILIRUBIN [2]: 0.25 mg/dL | TOTAL PROTEIN [2]: 5.83 G/DL | URIC ACID [2]: 1.58 mg/dL | ABSOLUTE BASOPHIL [3]: 0 CELLS/uL | ABSOLUTE EOSINOPHIL [3]: 0 CELLS/uL | ABSOLUTE LYMPHOCYTE [3]: 10952 CELLS/uL | ABSOLUTE MONOCYTE [3]: 127.67 CELLS/uL | ABSOLUTE SEGMENTED NEUTROPHIL [3]: 1687 CELLS/uL | BASOPHIL [3]: 0% | EOSINOPHIL [3]: 0% | ERYTHROCYTE COUNT [3]: 5.23 x10E6/uL | HEMATOCRIT [3]: 32.37% | HEMOGLOBIN [3]: 11.97 G/DL | LEUKOCYTE COUNT [3]: 12.77 x10E3/uL | LYMPHOCYTE [3]: 86.33% | MEAN CORPUSCULAR HEMOGLOBIN [3]: 22.9 pg | MEAN CORPUSCULAR HEMOGLOBIN CONCENTRATION [3]: 37 G/DL | MEAN CORPUSCULAR VOLUME [3]: 61.93 fL | MONOCYTE [3]: 1% | NEUTROPHIL [3]: 12.67% | NUCLEATED RED BLOOD CELLS [3]: 0 /100WBC | PLATELET COUNT [3]: 1138.33 x10E3/uL | ALANINE AMINOTRANSFERASE [3]: 57.67 u/L | ALKALINE PHOSPHATASE [3]: 333.67 u/L | ASPARTATE AMINOTRANSFERASE [3]: 91.67 u/L | BLOOD UREA NITROGEN [3]: 17.33 mg/dL | CARBON DIOXIDE [3]: 27 mmol/L | CHLORIDE [3]: 104.67 MEQ/L | CHOLESTEROL [3]: 71 mg/dL | CREATINE PHOSPHOKINASE [3]: 483 u/L | CREATININE [3]: 0.24 mg/dL | GLUCOSE [3]: 177 mg/dL | LACTATE DEHYDROGENASE [3]: 117.33 u/L | LIPASE [3]: 7.67 u/L | PHOSPHORUS [3]: 13 mg/dL | POTASSIUM [3]: 6.18 MEQ/L | SODIUM [3]: 146.27 MEQ/L | TOTAL BILIRUBIN [3]: 0.17 mg/dL | TOTAL PROTEIN [3]: 5.53 G/DL | URIC ACID [3]: 1.6 mg/dL
